{
  "source": "patent US8188008B2",
  "about": "“Herbicidally and insecticidally active 4-phenyl-substituted pyridazinones” (Bayer Cropscience AG, priority 2008, dated 2012)",
  "system": "green peach aphid (Myzus persicae)",
  "assay": "Myzus test (MYZUPE spray treatment)",
  "type": "in vivo",
  "conditions": "spray treatment of Chinese cabbage discs, application rate 500 g/ha; 100% = all aphids killed",
  "method": "Myzus Test (MYZUPE Spray Treatment) [table] To produce a suitable preparation of active compound, 1 part by weight of active compound is mixed with the stated amounts of solvents and emulsifier, and the concentrate is diluted with emulsifier-containing water to the desired concentration. Discs of Chinese cabbage (Brassica pekinensis) which are infested by all stages of the green peach aphid (Myzus persicae) are sprayed with an active compound preparation of the desired concentration. After the desired period of time, the effect in % is determined. 100% means that all aphids have been killed; 0% means that none of the aphids have been killed.",
  "data": [
    {"smiles": "Cn1ncc(O)c(-c2ccc(Cl)c(Cl)c2)c1=O", "note": "[I-1-a-4]", "values": [
      {"measurement": "effect in % (aphids killed)", "result": "at least 80%"}
    ]}
  ]
}
